In patent US10858362B2, “Imidazopyrazinones as PDE1 inhibitors” (H. Lundbeck A/S, priority 2015, dated 2020):

Key:
Assay type in all cases: biochemical
PDE1A = PDE1A (Homo sapiens (Human), UniProt P54750); assay: PDE1 inhibition assay, PDE1A; settings: for IC50: 15 nM tritium labelled cAMP
Protocol: (§1) Reactions were initiated by addition of the cyclic nucleotide substrate, and reactions were allowed to proceed for 1 h at room temperature before being terminated through mixing with 20 μL (0.2 mg) yttrium silicate SPA beads (PerkinElmer).

PDE1B = PDE1B (Homo sapiens (Human), UniProt Q01064); assay: PDE1 inhibition assay, PDE1B; settings: for inhibition at 1 µM: read-out: PDE1B, % inhibition (at 1 μM); for IC50: 15 nM tritium labelled cAMP
Chain of PDE1B (Q01064 whole entry): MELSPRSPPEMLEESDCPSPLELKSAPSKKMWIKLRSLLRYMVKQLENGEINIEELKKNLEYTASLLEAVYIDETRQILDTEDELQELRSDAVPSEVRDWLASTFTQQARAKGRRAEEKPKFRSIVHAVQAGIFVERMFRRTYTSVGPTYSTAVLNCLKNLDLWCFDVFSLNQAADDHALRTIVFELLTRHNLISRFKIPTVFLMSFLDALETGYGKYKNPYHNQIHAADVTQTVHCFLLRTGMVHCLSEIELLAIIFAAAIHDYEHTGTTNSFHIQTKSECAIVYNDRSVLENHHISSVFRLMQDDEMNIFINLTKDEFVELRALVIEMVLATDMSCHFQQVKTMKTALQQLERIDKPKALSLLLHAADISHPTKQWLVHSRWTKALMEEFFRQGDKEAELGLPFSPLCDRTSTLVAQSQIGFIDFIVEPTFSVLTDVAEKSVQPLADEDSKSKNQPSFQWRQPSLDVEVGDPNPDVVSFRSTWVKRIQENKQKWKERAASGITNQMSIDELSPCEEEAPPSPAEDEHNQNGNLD
Protocol: as §1, with “(PerkinElmer). The beads were allowed to settle for 1 h in the dark before the plates were counted in a Wallac 1450 Microbeta counter.” for “(PerkinElmer).”

PDE1C = PDE1C (Homo sapiens (Human), UniProt Q14123); assay: PDE1 inhibition assay, PDE1C; settings: for IC50: 15 nM tritium labelled cAMP
Chain of PDE1C (Q14123 whole entry): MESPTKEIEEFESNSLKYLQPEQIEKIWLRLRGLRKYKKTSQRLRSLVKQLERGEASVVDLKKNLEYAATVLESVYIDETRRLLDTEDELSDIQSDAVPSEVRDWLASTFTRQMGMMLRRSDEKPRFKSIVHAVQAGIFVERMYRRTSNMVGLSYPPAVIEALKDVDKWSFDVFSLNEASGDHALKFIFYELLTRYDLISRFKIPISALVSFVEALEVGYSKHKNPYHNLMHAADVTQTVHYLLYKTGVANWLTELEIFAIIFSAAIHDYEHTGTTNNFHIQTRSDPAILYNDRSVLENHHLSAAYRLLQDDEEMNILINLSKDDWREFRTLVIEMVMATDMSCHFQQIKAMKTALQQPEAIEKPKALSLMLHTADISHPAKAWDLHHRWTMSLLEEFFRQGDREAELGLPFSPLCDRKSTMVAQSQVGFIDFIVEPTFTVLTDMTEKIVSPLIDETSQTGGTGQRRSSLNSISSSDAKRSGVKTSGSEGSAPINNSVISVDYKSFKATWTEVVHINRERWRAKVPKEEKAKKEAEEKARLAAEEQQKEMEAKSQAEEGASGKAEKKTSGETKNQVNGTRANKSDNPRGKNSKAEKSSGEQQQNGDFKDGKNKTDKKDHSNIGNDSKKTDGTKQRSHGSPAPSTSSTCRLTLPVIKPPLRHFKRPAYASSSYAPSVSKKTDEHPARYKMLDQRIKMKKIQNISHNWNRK
Protocol: as §1, with “(PerkinElmer). The beads were allowed to settle for 1 h in the dark before the plates were counted in a Wallac 1450 Microbeta counter.” for “(PerkinElmer).”

PDE9 = PDE9 (Homo sapiens (Human), UniProt O76083); assay: PDE9 inhibition assay
Chain of PDE9 (O76083 whole entry): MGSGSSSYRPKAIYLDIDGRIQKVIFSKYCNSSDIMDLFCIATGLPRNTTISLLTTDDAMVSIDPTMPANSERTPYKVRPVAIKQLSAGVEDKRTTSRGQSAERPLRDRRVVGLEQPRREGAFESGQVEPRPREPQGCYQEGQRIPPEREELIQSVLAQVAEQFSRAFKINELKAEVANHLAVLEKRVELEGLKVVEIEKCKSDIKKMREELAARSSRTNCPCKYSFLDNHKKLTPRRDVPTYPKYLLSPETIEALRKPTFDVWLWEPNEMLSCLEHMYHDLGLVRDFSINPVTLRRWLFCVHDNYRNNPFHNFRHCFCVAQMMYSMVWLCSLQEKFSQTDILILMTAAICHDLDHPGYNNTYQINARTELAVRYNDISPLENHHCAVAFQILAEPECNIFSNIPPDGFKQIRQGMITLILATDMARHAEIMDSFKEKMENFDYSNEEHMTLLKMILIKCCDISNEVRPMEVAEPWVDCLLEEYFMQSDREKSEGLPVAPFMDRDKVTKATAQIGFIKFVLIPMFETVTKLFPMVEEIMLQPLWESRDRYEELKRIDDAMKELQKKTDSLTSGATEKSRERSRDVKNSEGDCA
Protocol: A PDE9 assay may for example, be performed as follows: The assay is performed in 60 μL samples containing a fixed amount of the relevant PDE enzyme (sufficient to convert 20-25% of the cyclic nucleotide substrate), a buffer (50 mM HEPES7.6; 10 mM MgCl2; 0.02% Tween20), 0.1 mg/ml BSA, 225 pCi of ^3H-labelled cyclic nucleotide substrate, tritium labeled cAMP to a final concentration of 5 nM and varying amounts of inhibitors. Reactions are initiated by addition of the cyclic nucleotide substrate, and reactions are allowed to proceed for one hr at room temperature before being terminated through mixing with 15 μL 8 mg/mL yttrium silicate SPA beads (Amersham). The beads are allowed to settle for one hr in the dark before the plates are counted in a Wallac 1450 Microbeta counter.
In the context of the present invention the assay was performed in 60 μL assay buffer (50 mM HEPES pH 7.6; 10 mM MgCl2; 0.02% Tween20) containing enough PDE9 to convert 20-25% of 10 nM ^3H-cAMP and varying amounts of inhibitors. Following a 1 hr incubation the reactions were terminated by addition of 15 μL 8 mg/mL yttrium silicate SPA beads (Amersham). The beads were allowed to settle for one hr in the dark before the plates were counted in a Wallac 1450 Microbeta counter.

Chain of PDE1A (P54750 whole entry): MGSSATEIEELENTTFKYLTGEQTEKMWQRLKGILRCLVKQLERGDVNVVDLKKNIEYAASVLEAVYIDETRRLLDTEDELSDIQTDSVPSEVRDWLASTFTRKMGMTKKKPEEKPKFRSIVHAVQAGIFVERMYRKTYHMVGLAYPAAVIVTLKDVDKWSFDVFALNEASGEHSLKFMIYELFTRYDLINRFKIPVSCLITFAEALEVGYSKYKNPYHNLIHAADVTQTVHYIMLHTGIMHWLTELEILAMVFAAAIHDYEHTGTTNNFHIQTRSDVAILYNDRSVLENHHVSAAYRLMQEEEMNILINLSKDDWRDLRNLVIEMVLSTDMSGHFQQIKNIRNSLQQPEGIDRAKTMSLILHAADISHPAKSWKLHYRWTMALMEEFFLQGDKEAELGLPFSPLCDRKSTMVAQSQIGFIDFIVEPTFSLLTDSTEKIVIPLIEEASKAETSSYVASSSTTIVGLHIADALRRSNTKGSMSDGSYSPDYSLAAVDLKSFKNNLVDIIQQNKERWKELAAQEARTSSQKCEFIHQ

SMILES	IC50 (PDE1C)	inhibition at 10 µM (PDE9)	IC50 (PDE1A)	IC50 (PDE1B)	% inhibition of PDE9 at 10 microM (PDE9)	further results
Cc1cn2c(C3CCOCC3)ncc2c(=O)n1Cc1cccc(C#N)c1 [Example 45, 3-((6-methyl-8-oxo-3-(tetrahydro-2H-pyran-4-yl)imidazo[1,5-a]pyrazin-7(8H)-yl)methyl)benzonitrile]	149 nM	6%	–	–	–	percent inhibition of PDE1A at 2 µM (PDE1A; at 2 μM, % sign not given): 64; inhibition at 1 µM (PDE1B): 54%
O=c1c2cnc(C3CCOCC3)n2cc(Br)n1Cc1cccc(F)c1 [Example 15, 6-Bromo-7-(3-fluorobenzyl)-3-(tetrahydro-2H-pyran-4-yl)imidazo[1,5-a]pyrazin-8(7H)-one]	15 nM	15%	58 nM	115 nM	–	–
COc1ccc(Cn2c(C)cn3c([C@@H]4CCO[C@H]4C)ncc3c2=O)cc1 (single isomer, unassigned; isomer 3) [55, isomer 3]	–	–	–	3 nM	–	–
COc1ccc(Cn2c(C)cn3c(C(C)(C)F)ncc3c2=O)cc1 [Example 87, 3-(2-fluoropropan-2-yl)-7-(4-methoxybenzyl)-6-methylimidazo[1,5-a]pyrazin-8(7H)-one]	–	10%	–	–	–	–
COc1ccc(Cn2c(C)cn3c(NC4CCOC4)ncc3c2=O)cc1 (stereo not shown) [Example 94, 7-(4-methoxybenzyl)-6-methyl-3-((tetrahydrofuran-3-yl)amino)imidazo[1,5-a]pyrazin-8(7H)-one]	–	-5%	2520 nM	–	–	–
Cc1cn2c([C@@H]3CCO[C@@H]3C)ncc2c(=O)n1Cc1cccc(F)c1 (single isomer, unassigned; isomer 1) [36, isomer 1]	–	–	152 nM	59 nM	3%	–
Cc1cn2c(C3C[C@H]3F)ncc2c(=O)n1Cc1cccc(F)c1 (single isomer, unassigned; isomer 2) [38, isomer 2]	153 nM	–	–	–	2%	–
Cc1cn2c([C@H]3CCO[C@@H]3C)ncc2c(=O)n1Cc1cccc(F)c1 (single isomer, unassigned; isomer 2) [36, isomer 2]	–	–	282 nM	107 nM	11%	–
Cc1cn2c(C3C[C@@H]3F)ncc2c(=O)n1Cc1cccc(F)c1 (single isomer, unassigned; isomer 1) [37, isomer 1]	345 nM	–	–	–	−2%	–
Cc1cn2c(C3C[C@@H]3F)ncc2c(=O)n1Cc1cccc(F)c1 (single isomer, unassigned; isomer 2) [37, isomer 2]	55 nM	–	–	–	13%	–
COc1ccc(Cn2c(C)cn3c([C@H]4CCO[C@H]4C)ncc3c2=O)cc1 (single isomer, unassigned; isomer 4) [55, isomer 4]	–	–	–	208 nM	1%	–
COc1ccc(Cn2c(C)cn3c(C(C)C)ncc3c2=O)cc1 [Example 77, 3-isopropyl-7-(4-methoxybenzyl)-6-methylimidazo[1,5-a]pyrazin-8(7H)-one]	20 nM	–	13 nM	7 nM	–	–
COc1ccc(Cn2c(C)cn3c(C4(C)CCN(C)CC4)ncc3c2=O)cc1 [Example 73, 3-(1,4-dimethylpiperidin-4-yl)-7-(4-methoxybenzyl)-6-methylimidazo[1,5-a]pyrazin-8(7H)-one]	2450 nM	–	1920 nM	1450 nM	–	–
Cc1cn2c([C@@H]3CCO[C@H]3C)ncc2c(=O)n1Cc1cccc(F)c1 (single isomer, unassigned; isomer 3) [36, isomer 3]	–	–	77 nM	21 nM	−10%	–
COc1ccc(Cn2c(C)cn3c([C@@H]4CCO[C@@H]4C)ncc3c2=O)cc1 (single isomer, unassigned; isomer 1) [55, isomer 1]	–	–	–	10 nM	18%	–
COc1cc(Cn2c(C)cn3c(C4CCOCC4)ncc3c2=O)ccc1Cl [Example 48, 7-(4-chloro-3-methoxybenzyl)-6-methyl-3-(tetrahydro-2H-pyran-4-yl)imidazo[1,5-a]pyrazin-8(7H)-one]	–	10%	–	–	–	inhibition at 1 µM (PDE1B): 54%; inhibition at 1 µM (PDE1C; read-out: PDE1C, % inhibition (at 1 μM)): 34%
